From patent US20100204460A1, “NATURAL BRASSINOSTEROIDS FOR USE FOR TREATING HYPERPROLIFERATION, TREATING PROLIFERATIVE DISEASES AND REDUCING ADVERSE EFFECTS OF STEROID DYSFUNCTION IN MAMMALS, PHARMACEUTICAL COMPOSITION AND ITS USE” (priority 2007, published 2010)

Experiments:
Assay type in all cases: cell-based
[1] = system: MDA-MB-468 cells; assay: Cell cycle distribution by flow cytometry, MDA-MB-468; conditions: IC50, 24 h; for Apoptosis subG1 fraction: control 10%; for Cell cycle distribution G2/M: control 17%; for Cell cycle distribution S: control 31%; for Cell cycle distribution G1: control 52%
Excerpt: In the MCF-7 breast cancer cell line that has been the most widely studied experimental cell system, the typical growth inhibitory response to antiestrogens is decrease in the proportion of cells synthesising DNA (S phase) after antiestrogen treatment. This decrease in S phase coincides with an increase in the proportion of cells in G0/G1 phase. The activity of the androgen receptor (AR) is also regulated by alterations in cell signaling. There has been reported ligand independent activation of AR in prostate cancer cells by different growth factors. As the AR can be activated in the absence of hormone, it appears that the conditions may be more restricted than those observed for ER. Use of physiologic doses of ligand (dihydrotestosterone, DHT) is of importance as the LNCaP cells proliferate only at DHT concentration of 10^−9 M or lower. […] In contrast to proliferation, transactivation of AR specific target genes (e.g. PSA) continues to increase with DHT doses of 10^−10 M and higher. It might be accepted for estrogen or androgen receptors as stronger cytotoxic activities of brassinosteroids 9 or 6 on hormone-sensitive (MCF-7, LNCaP) compared to hormone-insensitive (MDA-MB-468, DU-145) cell lines were found. Therefore we explored the possibility of cell cycle perturbation by BRs in different cancer cell lines. Flow cytometry was used to evaluate the number of cells in the particular phases of the cell cycle, including subG1 peak detection. Control and treated cells were washed twice with cold PBS and centrifuged at 360×g for 10 min at 4° C., and fixed with chilled ethanol (70%; v/v) by low-speeded vortexing. For detection of DNA content analysis, propidium iodide staining was used. The cells were analyzed using a FACSCalibur flow cytometer (BD Biosciences, San Jose, Calif.).
Flow-cytometric detection of apoptosis. Several studies have declared that the induction of apoptosis may be cell cycle-dependent. Therefore, in our next series of experiments, we tested if brassinosteroids 9 or 6 cause apoptosis of the breast and prostate cancer cells via cell cycle blockage. From this reason we carried out DNA cell cycle analysis by flow cytometry based on detection of endonucleolytic DNA degradation that results in extraction of low molecular weight DNA from the cells. […] The subG1 peak containing apoptotic bodies was however not observed in MCF-7 cells.

[2] = system: malignant human melanoma cell line G361; assay: Calcein AM cytotoxicity assay, G 361; conditions: G 361; exposure 72 h (b71 says 96 h); mean ± SD; read-out: IC50 assessed by Calcein AM assay of surviving cells
[3] = system: LNCaP cells; assay: BrdU incorporation assay, LNCaP
Method: (§1) To analyze if the inhibition in cell viability was due to decreased cell proliferation, we measured DNA synthesis in the presence of BRs. The effect of brassinosteroids 9 or 6 on cell proliferation and DNA replication of the cancer cells was measured by BrdU incorporation assay. This immunostaining was based on nuclear incorporation of bromodeoxyuridine (BrdU) into DNA in place of thymidine during the S-phase of cell cycle detected by anti-specific-BrdU antibody following membrane permeabilization as described previously (Gratzner, Science. 1982, 218, 474-475). […] The BrdU reagent (0.1 mM; Sigma, MO, USA) was added in culture medium with cells for 4 h in a CO2 incubator at 37° C. After incubation the cells were washed three times with PBS and fixed with cold acetone-methanol (1:1, v/v) for 10 min. The cells were denaturated by HCl (1:5; Lachema, Czech Republic) and incubated with anti-specific-BrdU antibody (diluted 1:100 in PBS; clone Bu20a, DakoCytomation, Denmark) for 60 min in the dark. The cells were then washed three times in PBS (10 mM, pH 7.4) and incubated with goat anti-mouse fluorescein isothiocyanate (FITC)-labeled secondary antibody (Sigma, MO, USA) for 60 min in the dark. The cells were then washed three times in PBS and incubated with DAPI (50 μg/mL; Sigma, MO, USA) for 10 min in the dark. The coverslips with cells were washed in deionized water and mounted on glass slides, using the hydrophilic medium Mowiol (Calbiochem, Calif., USA) in glycerol-PBS (1:3, v/v) for fluorescence. Cells were visualized using microscopy and those incorporating BrdU (S phase cells) were counted in at least 25 fields and compared with the total number of all cells.

[4] = system: MDA-MB-468 (estrogen receptor-α-negative) breast cancer cell line; assay: MTT cytotoxicity test, MDA-MB-468; conditions: 24 h, mean ± SD, read-out: IC50 determined by MTT cytotoxicity test
Method: 3-(4,5-Dimethylthiazol-2-yl)-2,5-diphenyltetrazolium bromide (MTT) was from Serva Electrophoresis (Heidelberg, Germany). Monoclonal mouse anti-bromodeoxyuridine (BrdU) intibody was obtained from DakoCytomation (Glostrup, Denmark). Calcein AM was obtained from PAA Laboratories GmbH (Pasching, Austria). […] All other cells were cultured in DMEM medium (Sigma, MO, USA). All used media were supplemented with 10% heat-inactivated fetal bovine serum, 2 mmol/L L-glutamine, 1% penicillin/streptomycin. The cell lines were maintained under standard cell culture conditions at 37° C. and 5% CO2 in a humid environment. Cells were subcultured twice or three times a week using the standard trypsinization procedure (Sigma, USA).
Cell viability in this case was assessed by 3-(4,5-dimethylthiozol-2-yl)-2,5-diphenyltetrazolium bromide (MTT) to determine IC50 concentrations of studied agents as described previously. […] The cells (70% to 80% confluent) were treated with brassinosteroids for 6, 12 and 24 h in cell culture medium. Cells that were used as controls were incubated with the maximum used amount of steroid diluent DMSO only. […] The absorbance was read using an ELISA reader Labsystem Multiscan RC at 570 nm. The viability of treated cells was related to the viability of control cells that represented 100% viability. […]

[5] = system: MDA-MB-468 cells; assay: BrdU incorporation assay, MDA-MB-468
Method: as §1

[6] = system: T-lymphoblastic leukaemia cell line CEM; assay: Calcein AM cytotoxicity assay, CEM; conditions: CEM; six 4-fold dilutions, exposure 72 h (b71 says 96 h); mean ± SD; read-out: IC50 assessed by Calcein AM assay of surviving cells
[7] = treated at IC50 for 6 h, control 44 ± 6.0
[8] = treated at IC50 for 12 h, control 52 ± 7.6
[9] = treated at IC50 for 24 h, control 59 ± 8.0
[10] = treated at IC50 for 6 h, control 64 ± 1.5
[11] = treated at IC50 for 12 h, control 58 ± 3.0
[12] = treated at IC50 for 24 h, control 64 ± 5.6

SMILES	Apoptosis subG1 fraction [1] [%]	Cell cycle distribution G2/M [1] [%]	Cell cycle distribution S [1] [%]	Cell cycle distribution G1 [1] [%]	IC50 [2] [µM]	percentage of proliferating BrdU positive cells [3, 7] [%]	percentage of proliferating BrdU positive cells [3, 8] [%]	percentage of proliferating BrdU positive cells [3, 9] [%]	IC50 [4] [µM]	percentage of proliferating BrdU positive cells [5, 10] [%]	percentage of proliferating BrdU positive cells [5, 11] [%]	percentage of proliferating BrdU positive cells [5, 12] [%]	IC50 [6] [µM]
CC[C@@H](C(C)C)[C@@H](O)[C@H](O)[C@@H](C)[C@H]1CC[C@H]2[C@@H]3CC(=O)[C@H]4C[C@H](O)[C@H](O)C[C@]4(C)[C@H]3CC[C@]12C [Brassinosteroid 9, 28-Homocastasterone]	35	9	17	74	> 50	25 ± 3.0	28 ± 4.6	27 ± 2.1	65 ± 2.8	55 ± 5.0	48 ± 4.6	28 ± 4.6	13
CC(C)[C@@H](C)[C@@H](O)[C@H](O)[C@@H](C)[C@H]1CC[C@H]2[C@@H]3COC(=O)[C@H]4C[C@H](O)[C@H](O)C[C@]4(C)[C@H]3CC[C@]12C [Brassinosteroid 6, 24-Epibrassinolide]	75	2	10	88	> 50	36 ± 5.5	31 ± 2.0	29 ± 4.7	68 ± 2.5	53 ± 4.4	55 ± 3.5	43 ± 3.6	44 ± 2.2
